Source: patent US20230375530A1, “HUMAN BLOOD-BRAIN BARRIER MODEL FOR IMMUNOLOGICAL STUDIES” (WISCONSIN ALUMNI RESEARCH FOUNDATION, priority 2020, published 2023)

Tests used:
[1] = system: hPSC-derived endothelial progenitors (Passage 1 ECs); test: Immunocytochemistry of Passage 1 ECs treated with Wnt ligands, CHIR or conditioned media; assay type: cell-based, human
Method: Collagen IV (Sigma-Aldrich) was dissolved in 0.5 mg/mL acetic acid to a final concentration of 1 mg/mL. Collagen IV-coated plates were prepared by diluting a volume of this stock solution 1:100 in water, adding the resulting solution to tissue culture plates, or #1.5 glass bottom plates (Cellvis, Sunnyvale, CA) for cells intended for confocal imaging (1 mL per well for 6-well plates, 0.5 mL per well for 12-well plates, 0.25 mL per well for 24-well plates), and incubating the plates for 1 h at RT. Collagen IV coating solution was removed and EPCs obtained as described above were suspended in hECSR medium and plated at approximately 3×10^4 cells/cm^2. In some experiments, cells were suspended in NR-CM or Astro-CM. In some experiments, ligands and small molecules were added to hECSR medium: CHIR 99021 (Tocris) was used at 4 μM except where indicated; DMSO (Sigma-Aldrich) was used as a vehicle control for CHIR; Wnt3a (R&D Systems) was used at 20 ng/mL; Wnt7a (Peprotech, Rocky Hill, NJ) was used at 50 ng/mL; Wnt7b (Abnova, Tapei, Taiwan) was used at 50 ng/mL; R-spondin 1 (Rspo1; Peprotech) was used at 50 ng/mL; doxycycline was used at 1, 2, or 4 μg/mL. The hECSR medium or CM, including any ligands or small molecules, was replaced every other day until confluent (typically 6 days). We denote this time point “Passage 1.”
Immunocytochemistry was performed in 24-well plates. Cells were washed once with 500 μL DPBS and fixed with 500 μL cold (−20° C.) methanol for 5 min, except cells intended for calponin/SM22a and CD31/Ki67 detection, which were fixed with 500 μL of 4% paraformaldehyde for 15 min. Cells were washed three times with 500 μL DPBS and blocked in 150 μL DPBS supplemented with 10% goat serum (Life Technologies) for 1 h at room temperature, except cells intended for calponin/SM22α detection, which were blocked and permeabilized in DPBS supplemented with 3% BSA and 0.1% Triton X-100, or cells intended for CD31/Ki67 detection, which were blocked and permeabilized in DPBS supplemented with 5% non-fat dry milk and 0.4% Triton X-100. Primary antibodies diluted in 150 μL of the above blocking solutions (see Table 6 for antibody information) were added to cells and incubated overnight at 4° C. on a rocking platform. Cells were washed three times with 500 μL DPBS. Secondary antibodies diluted in 150 μL of the above blocking solutions (see Table 6 for antibody information) were added to cells and incubated for 1 h at room temperature on a rocking platform, protected from light. Cells were washed three times with 500 μL DPBS, followed by 5 min incubation with 500 μL DPBS plus 4 μM Hoechst 33342 (Life Technologies). Images were acquired using an Eclipse Ti2-E epifluorescence microscope (Nikon, Tokyo, Japan) with a 20× objective or an A1R-Si+ confocal microscope (Nikon) with a 100× oil objective. Confocal images were acquired with 1 μm slice spacing.
Images were analyzed using FIJI (ImageJ) software. For epifluorescence images, 5 fields (20×) were analyzed per well, with 3-4 wells per treatment condition. For quantification of cell number, EC colonies were manually outlined, and the Analyze Particles function was used to estimate the number of nuclei within the EC colonies. Nuclei outside the EC colonies were manually counted. EC purity (% EC) was calculated as the number of nuclei within EC colonies relative to total nuclei. To estimate % GLUT-1^+ ECs, cells within the EC colonies with membrane-localized GLUT-1 immunoreactivity (e.g., arrowheads in FIG. 24B) were manually counted. To estimate % Ki67^+ ECs, cells within the EC colonies with at least one nuclear-localized Ki67 punctum were manually counted. For quantification of fluorescence intensity in epifluorescence images, EC colonies were manually outlined, and the Measure function was used to obtain the mean fluorescence intensity for each image channel (fluorophore). A cell-free area of the plate was similarly quantified for background subtraction. […]

CD31+ Passage 1 ECs = test: Dextran accumulation assay (fluid-phase endocytosis); assay type: cell-based, human; settings: 10 kDa dextran, 2 h, 37° C., CHIR vs DMSO
Method: A fixable, Alexa Fluor 488-conjugated dextran with an average molecular weight of […] (Invitrogen) was used as a tracer to estimate total fluid-phase endocytosis. Dextran was added at 10 μM to the medium of Passage 1 cultures. Plates were incubated on rotating platforms at 37° C. or 4° C. for 2 h. Medium was removed and cells were washed once with DPBS, and then incubated with Accutase for 10 min at 37° C. Cell suspensions were passed through 40 μm cell strainers into 4× volume of DMEM/F-12 and centrifuged for 5 min, 200×g. Cells were resuspended in MACS buffer and incubated with the CD31-APC antibody (Miltenyi Biotec) for 30 min at 4° C., protected from light. Cell suspensions were brought to a volume of 5 mL with MACS buffer and centrifuged at 4° C. for 5 min, 200×g. Pellets were resuspended in DPBS supplemented with 4% paraformaldehyde and incubated for 15 min at room temperature, protected from light. Cells were centrifuged for 5 min, 200×g. Pellets were resuspended in MACS buffer and analyzed on a BD FACSCalibur flow cytometer (BD Biosciences). FlowJo software was used to gate CD31^+ cells and quantify geometric mean fluorescence intensity and coefficient of variation (CV) of dextran.

[2] = 4 μM CHIR vs control, Passage 1 ECs

Cc1c[nH]c(-c2cnc(NCCNc3ccc(C#N)cn3)nc2-c2ccc(Cl)cc2Cl)n1 [CHIR, CHIR 99021]
caveolin-1 expression vs DMSO ([1]; 2 μM CHIR): did not lead to increased caveolin-1 expression | claudin-5 or GLUT-1 expression vs control ([1]; 2 μM CHIR): did not elevate claudin-5 or GLUT-1 expression | EC number and EC purity ([1]; 2 μM CHIR vs 4 μM CHIR): less effective in increasing EC number and EC purity than 4 μM CHIR | increase in GLUT-1 abundance [1, 2]: ~30 fold | increase in average claudin-5 abundance [1, 2]: approximately 1.5 fold | increase in caveolin-1 [1, 2]: 4 fold | ECs with induced GLUT-1 expression ([1]; 4 μM CHIR, Passage 1 ECs, IMR90-4): approximately 90% | EC number, EC purity, claudin-5 expression ([1]; 6 μM CHIR vs 4 μM): did not improve EC number, EC purity, or claudin-5 expression | GLUT-1 abundance ([1]; 6 μM CHIR vs 4 μM): further increased GLUT-1 abundance | caveolin-1 abundance ([1]; 6 μM CHIR vs 4 μM): further increased caveolin-1 abundance | increases in GLUT-1 abundance ([1]; CHIR treatment initiated immediately after MACS): 10- to 40 fold | EC purity (proportion of ECs compared to SMLCs) ([1]; Passage 1 cultures, 6 days treatment): increasing EC purity to a level similar to that achieved with Wnt7a | EC purity, EC number, caveolin-1 and GLUT-1 expression ([1]; additional hPSC line (WTC11)): conserved | claudin-5 upregulation ([1]; additional hPSC line (WTC11)): not apparent | reduction of PLVAP abundance ([1]; confocal microscopy, Passage 1 ECs, CHIR vs DMSO): approximately 20% | distribution of dextran intensities (CD31+ Passage 1 ECs): broadening of the distribution of dextran intensities | geometric mean dextran signal (CD31+ Passage 1 ECs): did not change the geometric mean dextran signal
